The numbers were not newly measured in patent publication US8697713B2, “Pyrrolopyrimidines for pharmaceutical compositions” (Boehringer Ingelheim International GmbH, priority 2006, dated 2014), which cites them from elsewhere.

In data set [1] the target is human Mnk2 protein (Homo sapiens, UniProt Q9HBH9).
Data set [2] concerns phosphorylated eIF4E. The following applies: cell culture cells transfected with Mnk2 (Mnk2a or Mnk2b) or Mnk1.

Sequence of human Mnk2 protein (Q9HBH9 whole entry): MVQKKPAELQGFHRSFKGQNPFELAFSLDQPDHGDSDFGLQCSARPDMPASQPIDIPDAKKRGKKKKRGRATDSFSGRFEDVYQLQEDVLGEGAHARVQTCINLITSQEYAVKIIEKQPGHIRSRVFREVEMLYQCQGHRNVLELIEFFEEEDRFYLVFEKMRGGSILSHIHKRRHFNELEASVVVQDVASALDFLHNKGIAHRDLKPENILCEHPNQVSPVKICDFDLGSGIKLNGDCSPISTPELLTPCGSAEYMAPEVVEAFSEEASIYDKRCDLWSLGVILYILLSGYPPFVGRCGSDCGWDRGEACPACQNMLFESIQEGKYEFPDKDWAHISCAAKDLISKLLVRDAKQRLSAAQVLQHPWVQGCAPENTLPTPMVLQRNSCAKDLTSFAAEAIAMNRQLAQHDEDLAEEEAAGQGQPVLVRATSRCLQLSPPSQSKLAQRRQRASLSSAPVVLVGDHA

Consider `COC(=O)c1ccc(O)cc1` [4-hydroxybenzoic acid methyl ester], for which the “binds the human Mnk2 protein” value in data set [1] was “binds”.
Regarding `Nc1ncnc2n[nH]c(Nc3ccc(F)cc3)c12` [CGP57380], the “reduction of phosphorylated eIF4E” value in data set [2] is on record as “strong reduction”.
